Measurements as given in patent US6337348B1, “Oxy-vanadium (iv) complexes having spermicidal activity” (Parker Hughes Institute, priority 1998, dated 2002).

Legend:
Format in all cases: cell-based
[1] = system: human sperm; test: Kinetics of sperm immobilization (timed CASA); details: for T½ of sperm immobilization (time for 50% motility loss): 200 μM, 37° C.
Description: To test the effect of duration of incubation on sperm immobilization in the presence of oxovanadium (IV) complexes, a motile fraction of sperm 10^7/ml) was incubated at 37° C. in 1 ml of BWW−0.3% BSA in the presence of 200 μM each of the complexes or 0.2% DMSO alone. At timed intervals (every 5 and 10 minutes) aliquots (4 μl) were transferred to two 20 μm Microcell (Conception Technologies) chambers, and sperm motility was assessed by CASA.
(§1) For CASA, 4 μl each of sperm suspension was loaded into two 20 μm Microcell chambers placed onto a counting chamber at 37° C. At least 5-8 fields per chamber were scanned for analysis using a Hamilton Thorne Integrated Visual Optical System (IVOS) version 10 instrument (Hamilton Thorne Research Inc., Danvers, Mass.). Each field was recorded for 30 seconds. The Hamilton Thorne computer calibrations were set at 30 frames at a frame rate of 30 images/seconds. Other settings were as follows: minimum contrast 8; minimum size 6; low-size gate, 1.0; high-size gate,2.9; low-intensity gate, 0.6; high-intensity gate, 1.4; phase-contrast illumination; low path velocity at 10 μm/seconds and threshold straightness at 80%; magnification factor, 1.95. The performance of the analyzer was periodically checked using the playback function.

[2] = system: human sperm; test: Flow cytometric quantitation of sperm acrosome reaction (anti-CD46 mAb binding); details: tested at 100 μM, 3 hours, 37° C., mean of two experiments
Description: In experiments designed to assess the comparative effects of oxovanadium (IV) complexes and N-9 on sperm acrosome reaction, motile fractions of sperm (10^7/ml) prepared from a single donor were incubated in 1 ml of BWW−0.3% BSA in the presence of 100 μM each of the vanadocene complexes, VO(phen), VO(phen)2, VO(Me2—phen), VO(Me2—phen)2, VO(Cl—phen), VO(Cl—phen)2, VO(bipy), VO(bipy)2, VO(Me2—bipy), VO(Me2—bipy)2, and VO(Br,OH—acph)2 in 0.1% DMSO, N-9, or DMSO (0.1%) alone at 37° C. After 3 hours, 5 μg/ml of purified, phycoerythrin (PE)-conjugated murine anti-CD46 monoclonal antibody (mAb; clone 122-2; Research Diagnostics, Flanders, N.J.) was added and the sperm suspensions incubated for an additional 30 minutes. The suspensions was washed in Tyrode's salt solution (Sigma) containing 1% BSA (1% TBSA) and the percentage of CD46-positive sperm were analyzed by flow cytometry using a FACS Vantage flow cytometer (Becton Dickinson, Mountain View, Calif.), as described previously (DeCruz et al., 1996, Biol Reprod. 54:1217-1228; DeCruz et al., 1992, Fertil. Seril., 58:633-636). Two separate experiments were performed to quantitate acrosomal loss following exposure of sperm to oxovanadium (IV) complexes.

[3] = system: human sperm; test: Sperm immobilization assay (SIA), motility by CASA; details: for EC50: read-out: EC50 (concentration that decreases the proportion of motile sperm by 50%), 3 hours incubation at 37° C., BWW-0.3% BSA, serial 2-fold dilutions 250 μM to 1.9 μM, mean of two experiments
Description: To evaluate the spermicidal effects of complexes of oxovanadium (IV), VO(phen), VO(phen)2, VO(Me2—phen), VO(Me2—phen)2, VO(Cl—phen), VO(Cl—phen)2], VO(bipy), VO(bipy)2, VO(Me2—bipy), VO(Me2—bipy)2, and VO(Br,OH—acph)2, a highly motile fraction of pooled donor sperm (N=5) was prepared by discontinuous (90−45%). Percoll gradient (Conception Technologies, San Diego, Calif.) centrifugation and the “swim-up” method as described previously (Aitken et al., 1989, Biol. Reprod. 40:183-197). All donor specimens were obtained after informed consent and in compliance with the guidelines of the Hughes Institutional Review Board. Motile sperm (≳10×10^6/ml) were suspended in 1 ml of Biggers, Whitten, and Whittingham's medium (BWW) containing 0.3% BSA (fraction V; Sigma Chemical Co., St. Louis, Mo.) in the presence and absence of serial 2-fold dilutions of test substance (250 μM−1.9 μM) in 0.25% dimethyl sulfoxide (DMSO). For each experiment, fresh stock solutions (100 mM) of vanadium compounds were prepared in DMSO. A corresponding volume of DMSO (0.25%) was added to control sperm suspension. After 3 hours of incubation at 37° C., the percentage of motile sperm was evaluated by computer-assisted sperm motion analysis (CASA) as described previously (Aitken et al., 1989, Supra). The percentages of motilities were compared with those of sham-treated control suspensions of motile sperm.
as §1
Results for the various numerical sperm functional parameters are presented as mean±standard deviation (SD) values. Comparison between oxovanadium (IV) complex-treated and control sperm relative to sperm motility parameters and apoptosis were performed using paired, two-tailed Student's T-test. A p value of <0.05 was considered significant.

Compound	time of exposure to complete sperm motility loss [1]	T½ of sperm immobilization (time for 50% motility loss) [1]	Anti-CD46 positive sperm (%) [2]	Anti-CD46 positive sperm (%) ([2]; listed as VO(Cl—phen)2)	fold more potent than N-9 (spermicidal activity) ([3]; identical experimental conditions)	EC50 [3]	Anti-CD46 positive sperm (%) ([2]; listed as VO(Br,OH—acph)2)
Clc1cc2cccnc2c2ncccc12.Clc1cc2cccnc2c2ncccc12.O.O=S(=O)([O-])[O-].[O]=[V+2] [VO(Cl-phen)2, (aqua)bis(5-chloro-1,10-phenanthroline)oxovanadium (IV) sulfate]	≤ 10 min	7.3 min	21.5%	21.5%	14 fold	5.5 µM	–
Clc1cc2cccnc2c2ncccc12.O.O.O=S(=O)([O-])[O-].[O]=[V+2] [VO(Cl-phen), (diaqua)(5-chloro-1,10-phenanthroline)oxovanadium (IV) sulfate]	–	–	11.2%	–	–	39.1 µM	–
Cc1ccnc2c1ccc1c(C)ccnc12.Cc1ccnc2c1ccc1c(C)ccnc12.O.O=S(=O)([O-])[O-].[O-2].[V+4] [VO(Me2-phen)2, (aqua)bis(4,7-dimethyl-1,10-phenanthroline)oxovanadium (IV) sulfate]	–	–	11.7%	–	–	47.9 µM	–
Cc1ccnc2c1ccc1c(C)ccnc12.O.O.O=S(=O)([O-])[O-].[O]=[V+2] [VO(Me2-phen), (diaqua)(4,7-dimethyl-1,10-phenanthroline)oxovanadium (IV) sulfate]	–	–	14.0%	–	–	20.5 µM	–
O.O=S(=O)([O-])[O-].[O-2].[V+4].c1ccc(-c2ccccn2)nc1.c1ccc(-c2ccccn2)nc1 [VO(bipy)2, (aqua)bis(2,2′-bipyridyl)oxovanadium (IV) sulfate]	–	–	4.7%	–	–	35.3 µM	–
O.O.O=S(=O)([O-])[O-].[O]=[V+2].c1ccc(-c2ccccn2)nc1 [VO(bipy), (diaqua)(2,2′-bipyridyl)oxovanadium (IV) sulfate]	–	–	6.1%	–	–	118 µM	–
O.O=S(=O)([O-])[O-].[O]=[V+2].c1cnc2c(c1)ccc1cccnc12.c1cnc2c(c1)ccc1cccnc12 [VO(phen)2, (aqua)bis(1,10-phenanthroline)oxovanadium (IV) sulfate]	–	–	9.9%	–	–	6.5 µM	–
O.O.O=S(=O)([O-])[O-].[O]=[V+2].c1cnc2c(c1)ccc1cccnc12 [VO(phen), (diaqua)(1,10-phenanthroline)oxovanadium (IV) sulfate]	–	–	9.7%	–	–	37 µM	–
(aqua)bis(4,4′-dimethyl-2,2′-bipyridyl)oxovanadium (IV) sulfate [VO(Me2-bipy)2]	–	–	3.2%	–	–	72.5 µM	–
(diaqua)(4,4′-dimethyl-2,2′-bipyridyl)oxovanadium (IV) sulfate [VO(Me2-bipy)]	–	–	6.4%	–	–	83 µM	–
bis(5′-bromo-2′-hydroxyacetophenone)oxovanadium (IV) [VO(Br,OH-acph)2]	≤ 2 min	0.633 min	24.3%	–	–	13.4 µM	24.3%
